# Data from US7226931B2, “(R/S) rifamycin derivatives, their preparations and pharmaceutical compositions” (priority 2004, dated 2007).
# Where two headings read alike, the source gives them in different places.
# Experiments:
# [1] = test system: Staphylococcus aureus MT1222 gyrA^A116E grlB^S80F; experiment: MIC by microbroth dilution, quinolone-resistant S. aureus MT1222; type: cell-based
# Experimental: (§1) Representative compounds of the formula (I) were assayed for antimicrobial activity as follows: Minimum Inhibitory Concentrations (MICs) were determined by the microbroth dilution method as per NCCLS guidelines (National Committee for Clinical Laboratory Standards, 2000). All growth incubations were conducted at 37° C. Bacterial cultures were tested in the following bacteriological media: S. aureus, S. epidermidis in Cation-Adjusted Mueller-Hinton Broth, S. pneumoniae in THY Broth supplemented with 1 mg/mL catalase under 5% CO2 atmosphere, S. pyogenes in THY Broth, E. faecalis in BHI Broth, H. influenzae in BHI Broth supplemented with 0.75 μL of 1 mg/mL NAD and 150 μL of 1 mg/ml hematin per 5 mL.
# (§2) S. aureus ATCC 29213, S. epidermidis ATCC 12228, S. pneumoniae ATCC6303, S. pyogenes ATCC 19615 and E. faecalis ATCC 29212 are rifampin-susceptible Gram-positive strains. […] H. influenzae ATCC 10211 is Gram-negative bacteria.
# [2] = test system: S. aureus ATCC 29213; experiment: MIC by microbroth dilution, S. aureus ATCC 29213 (rifS); type: cell-based, Staphylococcus aureus
# Experimental: as §1, §2
# [3] = test system: pathogenic microorganisms; experiment: Antibacterial activity, influence of linker chirality (R versus S); type: cell-based; conditions: (R)- versus (S)-absolute configuration at the linker carbon
# Experimental: as §1, with “As already mentioned, the compounds of formula I or their salts have antibacterial properties and activities against rifampin and quinolone resistant strains. […] Representative” for “Representative”
# The antibacterial activities of the compounds of the formula (I) are influenced by the chirality of the linker.
# [4] = test system: S. pyogenes ATCC 19615; experiment: MIC by microbroth dilution, S. pyogenes ATCC 19615; type: cell-based, Streptococcus pyogenes
# Experimental: as §1, §2
# [5] = test system: H. influenzae ATCC 10211; experiment: MIC by microbroth dilution, H. influenzae ATCC 10211; type: cell-based, Haemophilus influenzae
# Experimental: as §1, §2
# [6] = test system: S. epidermidis ATCC 12228; experiment: MIC by microbroth dilution, S. epidermidis ATCC 12228; type: cell-based, Staphylococcus epidermidis
# Experimental: as §1, §2
# [7] = test system: S. pneumoniae ATCC6303; experiment: MIC by microbroth dilution, S. pneumoniae ATCC6303; type: cell-based, Streptococcus pneumoniae
# Experimental: as §1, §2
# [8] = test system: S. aureus ATCC 29213 RpoB^D417Y; experiment: microbe, parasite or virus in culture; type: cell-based; conditions: Staphylococcus aureus
# Experimental: as §1, §2
# [9] = MIC by microbroth dilution, panel of rifampin-susceptible Gram-positive strains; type: cell-based; conditions: range over the rifampin-susceptible Gram-positive strains
# Experimental: as §1, §2
# [10] = read-out: Antimicrobial activity (MIC)
# [11] = Staphylococcus aureus, ATCC29213, read-out: Antimicrobial activity (MIC)
# [12] = Streptococcus pyogenes, ATCC19615, read-out: Antimicrobial activity (MIC)
# [13] = Haemophilus influenzae ATCC10211, rifS, read-out: Antimicrobial activity (MIC)
# [14] = Staphylococcus epidermidis, ATCC12228, read-out: Antimicrobial activity (MIC)
# [15] = Streptococcus pneumoniae, ATCC6303, read-out: Antimicrobial activity (MIC)
# [16] = ATCC29213, read-out: Antimicrobial activity (MIC)
# [17] = Staphylococcus aureus ATCC29213, rifS, read-out: Antimicrobial activity (MIC)
# [18] = Streptococcus pyogenes ATCC19615, rifS, read-out: Antimicrobial activity (MIC)
# [19] = Staphylococcus epidermidis ATCC12228, rifS, read-out: Antimicrobial activity (MIC)
# [20] = Streptococcus pneumoniae ATCC6303, rifS, read-out: Antimicrobial activity (MIC)
Structure (SMILES),"MIC [1, 10] [µg/mL]","MIC [2, 11] [µg/mL]",antibacterial activity compared with example 2 ((S)-configuration) [3],"MIC [4, 12] [µg/mL]","MIC [5, 13] [µg/mL]","MIC [6, 14] [µg/mL]","MIC [7, 15] [µg/mL]","MIC [8, 16] [µg/mL]",MIC [1] [µg/mL],"MIC [2, 17] [µg/mL]","MIC [4, 18] [µg/mL]","MIC [6, 19] [µg/mL]","MIC [7, 20] [µg/mL]",MIC [9] [µg/mL],"MIC ([5]; Haemophilus influenzae, ATCC10211, Gram-negative bacteria (H. influenzae ATCC 10211, 'these organisms'), read-out: MICs) [µg/mL]",MIC ([8]; ATCC29213) [µg/mL]
"CO[C@H]1/C=C/O[C@@]2(C)Oc3c(C)c(O)c4c(O)c(c(/C=N/N5CCC(N(C)C6([C@@H]7CCN(c8c(F)cn9c(=O)c(C(=O)O)cc(C%10CC%10)c9c8C)C7)CC6)CC5)c(O)c4c3C2=O)NC(=O)/C(C)=C\C=C\[C@H](C)[C@H](O)[C@@H](C)[C@@H](O)[C@@H](C)[C@H](OC(C)=O)[C@@H]1C [Example 1, (R)-3-[(4-{1-[1-(3-Carboxy-1-cyclopropyl-7-fluoro-9-methyl-4-oxo-4H-quinolizine-8-yl)-pyrrolidin-3-yl-cyclopropyl]-methylamino}-piperidin-1-ylimino)-methylenyl]-rifamycin SV]",0.06,0.06,more active,0.015,0.5,0.06,0.015,0.5,–,–,–,–,–,–,–,–
"CO[C@H]1/C=C/O[C@@]2(C)Oc3c(C)c(O)c4c(O)c(c(/C=N/N5CCC(N(C)C6([C@H]7CCN(c8c(F)cn9c(=O)c(C(=O)O)cc(C%10CC%10)c9c8C)C7)CC6)CC5)c(O)c4c3C2=O)NC(=O)/C(C)=C\C=C\[C@H](C)[C@H](O)[C@@H](C)[C@@H](O)[C@@H](C)[C@H](OC(C)=O)[C@@H]1C [Example 2, (S)-3-[(4-{1-[1-(3-Carboxy-1-cyclopropyl-7-fluoro-9-methyl-4-oxo-4H-quinolizine-8-yl)-pyrrolidin-3-yl-cyclopropyl]-methylamino}-piperidin-1-ylimino)-methylenyl]-rifamycin SV]",0.24,0.24,–,0.03,0.5,0.12,0.015,8,–,–,–,–,–,–,–,–
O=C(O)c1cn(C2CC2)c2cc(N3CCNCC3)c(F)cc2c1=O [ciprofloxacin],8,–,–,–,0.008,–,–,0.25,8,0.25,0.5,0.125,1,–,–,–
CO[C@H]1/C=C/O[C@@]2(C)Oc3c(C)c(O)c4c(O)c(c(/C=N/N5CCN(C)CC5)c(O)c4c3C2=O)NC(=O)/C(C)=C\C=C\[C@H](C)[C@H](O)[C@@H](C)[C@@H](O)[C@@H](C)[C@H](OC(C)=O)[C@@H]1C [rifampin],0.004,–,–,–,0.24,–,–,> 256,–,0.008,0.013,0.03,0.061,0.008 to 1,0.24 to 16,> 256
